In patent US4600780A, “N-cyano-formamidines” (Ferrer International, S.A., priority 1983, dated 1986):
Structures can show the parent of a compound that is named as a salt.

Target: T1, histamine H2 -receptors (Rattus norvegicus, UniProt P25102)
T1 construct: from tissue; host or cells: stomach of living anaesthetized Sprague-Dawley rats (in vivo perfusion)
Assay: Blocking activity of histamine H2-receptors: inhibition of histamine-induced perfusate pH decrease (gastric acid secretion) in perfused stomach of anaesthetized rats
Format: in vivo, Sprague-Dawley albino male rats
Settings: for ED50: rat, iv, anaesthetized rats, perfused stomach, histamine 0.325 μmols/kg/min, test drugs via femoral veins, read-out: ED50 (inhibition rate of maximal pH decrease in relation to initial pH); for times more active than Cimetidine, according to ED50 values: ratio of ED50 values to Cimetidine (Table 1)
Method: The blocking activity of histamine H2 -receptors was tested in Sprague-Dawley albino male rats weighing 350-450 g. Animals subject to 18-hour fasting were anaesthetized with urethane (1.5 g/kg i.p.), after which a longitudinal incision was performed on the abdominal wall, and pylorus and esophagus were cannulated for subject perfusion. In addition, femoral veins were cannulated for administration of test drugs and histamine solution.
The animals' stomachs were perfused with 1/8000N NaOH diluted solution at a rate of 2 ml/min. The perfusion liquid was then circulated through a 3 ml-volume chamber provided with a pH meter electrode. After calibrating the pH, histamine was perfused at 0.325 μmols/kg/min. The histamine perfusion caused a decrease of the perfusion liquid pH, which was inhibited by the compounds of the present invention.

T1 sequence (P25102 whole entry, the tested form may be a part): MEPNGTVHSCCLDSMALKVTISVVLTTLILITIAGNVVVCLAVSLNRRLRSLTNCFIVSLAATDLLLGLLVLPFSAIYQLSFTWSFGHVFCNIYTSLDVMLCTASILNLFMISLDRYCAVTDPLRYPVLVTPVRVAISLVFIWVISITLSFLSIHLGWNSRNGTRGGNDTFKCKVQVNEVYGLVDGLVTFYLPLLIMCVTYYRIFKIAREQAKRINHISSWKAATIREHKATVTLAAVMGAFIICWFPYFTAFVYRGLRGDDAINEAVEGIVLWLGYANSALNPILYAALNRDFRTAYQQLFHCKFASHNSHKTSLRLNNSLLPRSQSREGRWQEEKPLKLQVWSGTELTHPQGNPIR

Row | ED50 [µmol/kg] | times more active than Cimetidine, according to ED50 values [times] | SMILES
1 | 2.17 | 2.6 | N#CN=CNCCSCc1csc(NC(=N)N)n1 [Example 3, N-cyano-N'-[2-[[[2-[(aminoiminomethyl)amino]-4-thiazolyl]methyl]thio]ethyl]formamidine maleate acid]
2 | 3.2 | 1.8 | N#CN=CNCCCOc1cccc(CN2CCCCC2)c1 [Example 4, N-cyano-N'-[3-[3-(1-piperidinylmethyl)phenoxy]propyl]formamidine hydrochloride]

Row | SMILES | ED50 [µmol/kg] | times more active than Cimetidine, according to ED50 values [times]
3 | CN/C(=N/CCSCc1nc[nH]c1C)NC#N [Cimetidine, reference compound] | 5.6 | –
